Reference: the NIST ThermoML archive (doi:10.1007/s10765-018-2359-2)

What was measured:
[1] = 100 kPa, Liquid; for thermal conductivity: transient hot wire
[2] = xn = mol fraction of the nth substance listed; details: 100 kPa, Liquid; for thermal conductivity: transient hot wire

CCOP(=O)([O-])OCC.CCn1cc[n+](C)c1 [1-ethyl-3-methylimidazolium diethyl phosphate]
[1]
Details	mass density [kg/m3]	thermal conductivity [W/m/K]
303.15 K	1144.9	–
313.15 K	1139.2	0.1745
333.15 K	1127.2	–
353.15 K	1115.2	–

CCOP(=O)([O-])OCC.CCn1cc[n+](C)c1 [1-ethyl-3-methylimidazolium diethyl phosphate] + O
[2]
Details	mass density, x1 = 0.2 [kg/m3]	mass density, x1 = 0.4 [kg/m3]	mass density, x1 = 0.6 [kg/m3]	mass density, x1 = 0.8 [kg/m3]	mass density, x1 = 1 [kg/m3]	thermal conductivity, x1 = 0.2 [W/m/K]	thermal conductivity, x1 = 0.4 [W/m/K]	thermal conductivity, x1 = 0.6 [W/m/K]	thermal conductivity, x1 = 0.8 [W/m/K]	thermal conductivity, x1 = 1 [W/m/K]
303.15 K	1133.7	1137.4	1139.3	1143.2	1144.9	–	–	–	–	–
313.15 K	1126	1131.3	1133.3	1137.2	1139.2	0.2341	0.1964	0.1849	0.1783	0.1745
333.15 K	1112.4	1118.3	1121.1	1124.4	1127.2	–	–	–	–	–
353.15 K	1098.8	1105.7	1108.9	1118	1115.2	–	–	–	–	–

O [water]
[1]
Details	thermal conductivity [W/m/K]
302.39 K	0.6187
314.31 K	0.6334
333.54 K	0.656
353.53 K	0.67
